Laboratory results published in ChEMBL document CHEMBL1201862, “PubChem BioAssay data set” (2004).
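In this assay, cells in 96-well plates receive the compound at five concentrations for 48 hours. Endpoints are linearly interpolated between the surrounding concentrations. At the GI50, growth is halved.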 The source made the active and inactive calls. Cut-off read from the data, not from the text of the source: active = GI50 up to about 1.1 µM and inactive = higher.

Legend:
Test in all cases: DTP human tumour cell line panel, 48 h
DLD-1 = tested on: DLD-1
EKVX = tested on: EKVX
PC-3 = tested on: PC-3
NCI-H522 = tested on: NCI-H522
RXF 393 = tested on: RXF 393
HOP-92 = tested on: HOP-92
CCRF-CEM = tested on: CCRF-CEM
NCI-H460 = tested on: NCI-H460
RPMI-8226 = tested on: RPMI-8226
T47D = tested on: T47D
HCC 2998 = tested on: HCC 2998
U-251 = tested on: U-251
MDA-MB-231 = tested on: MDA-MB-231
OVCAR-3 = tested on: OVCAR-3
MDA-MB-435 = tested on: MDA-MB-435
COLO 205 = tested on: COLO 205
ACHN = tested on: ACHN
NCI-H226 = tested on: NCI-H226
SK-MEL-28 = tested on: SK-MEL-28
K562 = tested on: K562

Compound | GI50 (DLD-1) | GI50 (EKVX) | GI50 (PC-3) | GI50 (NCI-H522) | GI50 (RXF 393) | GI50 (HOP-92) | GI50 (CCRF-CEM) | GI50 (NCI-H460) | GI50 (RPMI-8226) | GI50 (T47D) | GI50 (HCC 2998) | GI50 (U-251) | GI50 (MDA-MB-231) | GI50 (OVCAR-3) | GI50 (MDA-MB-435) | GI50 (COLO 205) | GI50 (ACHN) | GI50 (NCI-H226) | GI50 (SK-MEL-28) | GI50 (K562)
COc1ccc(S(=O)(=O)N/N=C/C(=O)O)cc1 | > 906 µM (inactive) | 1160 µM (inactive) | 389 µM (inactive) | 275 µM (inactive) | 410 µM (inactive) | 364 µM (inactive) | 176 µM (inactive) | 359 µM (inactive) | 269 µM (inactive) | 695 µM (inactive) | 607 µM (inactive) | 499 µM (inactive) | 822 µM (inactive) | 495 µM (inactive) | 407 µM (inactive) | 1010 µM (inactive) | 354 µM (inactive) | 624 µM (inactive) | 764 µM (inactive) | 501 µM (inactive)
COc1cc(C2c3cc4c(cc3[C@@H](Nc3ccc(C#N)cc3)C3COC(=O)[C@H]23)OCO4)cc(OC)c1O (stereo not given in full) | 1.27 µM (inactive) | 16.7 µM (inactive) | 9.82 µM (inactive) | 1.88 µM (inactive) | 1.41 µM (inactive) | 1.02 µM (active) | 0.524 µM (active) | 0.038 µM (active) | 0.155 µM (active) | 0.828 µM (active) | 0.0693 µM (active) | 1.43 µM (inactive) | 9.31 µM (inactive) | 14.4 µM (inactive) | 8.77 µM (inactive) | 6.38 µM (inactive) | 0.184 µM (active) | 0.665 µM (active) | 6.97 µM (inactive) | 0.462 µM (active)
